# Measurements published in patent publication US20260250318A1, “COMPOSITIONS AND METHODS FOR CROSSING THE BLOOD BRAIN BARRIER” (VOYAGER THERAPEUTICS, INC., priority 2022, published 2026).
# Tests used:
# Conditions in all cases: synthetic library passage 3, intravenous, relative to wild-type AAV9
# [1] = system: brain, spinal cord, and DRG of the NHPs; test: NGS fold enrichment of synthetic library (passage 3) in NHPs, first cross-species screen; type: in vivo, cynomolgus macaques (Macaca fascicularis)
# Summary of the method: (§1)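 Synthetic capsid library (passage 3) was given intravenously […] to NHPs aged 2-4 years and to BALB/c and C57Bl/6 mice (n=3 each, 6-8 weeks). After about 28 days in vivo, tissue RNA was RT-PCR amplified and NGS-sequenced; values are fold enrichment per variant relative to wild-type AAV9.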
# [2] = system: brain; test: NGS fold enrichment of synthetic library (passage 3) in BALB/c mice, first cross-species screen; type: in vivo
# Summary of the method: as §1
# [3] = system: brain; test: NGS fold enrichment of synthetic library (passage 3) in C57Bl/6 mice, first cross-species screen; type: in vivo
# Summary of the method: as §1
# [4] = RNA from spinal cord of NHPs, NGS
# [5] = RNA from brain of BALB/c mice, NGS
# [6] = RNA from brain of C57Bl/6 mice, NGS
Sequence,"Fold enrichment over AAV9 in the brain of NHPs ([1]; RNA NGS, brain of NHPs)","Fold enrichment over AAV9 in the spinal cord of NHPs ([1]; RNA NGS, spinal cord of NHPs)","Fold enrichment over AAV9 in the brain of Mice (BALB/c) ([2]; RNA NGS, brain of BALB/c mice)","Fold enrichment over AAV9 in the brain of Mice (C57Bl/6) ([3]; RNA NGS, brain of C57Bl/6 mice)","Fold enrichment over AAV9 in the brain of NHPs ([1]; RNA from brain of NHPs, NGS)","Fold enrichment over AAV9 in the spinal cord of NHPs [1, 4]","Fold enrichment over AAV9 in the brain of Mice (BALB/c) [2, 5]","Fold enrichment over AAV9 in the brain of Mice (C57Bl/6) [3, 6]"
GSGHSSHSVQNQQT,3.339 fold,3.318 fold,0.424 fold,0.942 fold,–,–,–,–
GSGHSVSGPQNQQT,1.993 fold,6.259 fold,0.619 fold,1.370 fold,–,–,–,–
GSGHTNPTRQNQQT,1.021 fold,0.688 fold,0.807 fold,0.726 fold,–,–,–,–
GSGHVPNSGLNQQT,2.091 fold,0.653 fold,1.154 fold,1.636 fold,–,–,–,–
GSGIAAQRTQNQQT,1.665 fold,2.691 fold,0.754 fold,1.062 fold,–,–,–,–
GSGIGSHIPQNQQT,–,–,–,–,1.319 fold,0.173 fold,0.597 fold,0.822 fold
GSGIIPVSSQNQQT,6.352 fold,0.000 fold,0.253 fold,0.642 fold,–,–,–,–
GSGIPAPRLQNQQT,–,–,–,–,1.273 fold,4.162 fold,0.396 fold,0.583 fold
GSGIPQRSGKNQQT,3.331 fold,0.000 fold,1.685 fold,1.418 fold,–,–,–,–
GSGIPSVKFQNQQT,–,–,–,–,1.281 fold,0.061 fold,0.561 fold,0.364 fold
GSGIQSSYSQNQQT,1.517 fold,15.978 fold,0.684 fold,1.032 fold,–,–,–,–
GSGISSRNMQNQQT,–,–,–,–,1.291 fold,6.328 fold,0.560 fold,1.671 fold
GSGIVTKLGQNQQT,–,–,–,–,1.174 fold,10.571 fold,0.242 fold,0.599 fold
GSGKGHSAGQNQQT,1.453 fold,0.936 fold,1.173 fold,1.035 fold,–,–,–,–
GSGKNQQRPGLDQT,1.089 fold,1.557 fold,0.385 fold,0.583 fold,–,–,–,–
GSGKNQTPIPKGQT,–,–,–,–,1.339 fold,5.077 fold,1.154 fold,1.306 fold
GSGKVTKQSQNQQT,1.095 fold,0.000 fold,1.035 fold,0.928 fold,–,–,–,–
GSGLAHLGGQNQQT,1.064 fold,2.191 fold,0.794 fold,0.749 fold,–,–,–,–
GSGLALERSQNQQT,–,–,–,–,1.311 fold,0.486 fold,0.096 fold,0.618 fold
GSGLDYSQRQNQQT,2.056 fold,0.837 fold,0.217 fold,0.484 fold,–,–,–,–
